The results in this text go back to paper PMC12010006, “Subnanomolar MAS-related G protein-coupled receptor-X2/B2 antagonists with efficacy in human mast cells and disease models” (Signal Transduction and Targeted Therapy, 2025).

“Also recorded” adds a separate entry of the source.

For assay [1], the system named is mouse tracheal rings. The assay is described as follows: Isometric force measurements of mouse tracheal rings on wire-myograph. The settings on record: 100 µM, 10 min pre-treatment, C48/80 30 µg/mL. How it is done:
The MRGPRX2/MRGPRB2 agonist C48/80 was previously reported to induce tracheal contractions in WT mice, a response that was absent in mice with a frameshift mutation in Mrgprb2.[53] We investigated whether this effect could be blocked by PSB-172656, the potent MRGPRX2/MRGPRB2 antagonist. Therefore, the force of tracheal contractions induced by C48/80 (30 µg/mL) in mouse tracheal rings was measured using a wire myograph, confirming the compound’s ability to […] tracheal contractions (Fig. 7c, d).
Isometric force measurements were performed as described previously.[68] In detail, tracheas of C57BL/6 mice were isolated and cut into rings in cold low-calcium physiological saline solution (PSS), containing 118 mM NaCl, 5 mM KCl, 1.2 mM MgCl2, 1.5 mM NaH2PO4, 0.16 mM CaCl2, 10 mM glucose and 24 mM Hepes (pH 7.4). Rings were mounted on a wire-myograph (Multi Myograph 620 M, Danish Myo Technology, Aarhus, Denmark) and pre-stretched to 5 mN in PSS, containing 118 mM NaCl, 5 mM KCl, 1.2 mM MgCl2, 1.5 mM NaH2PO4, 1.6 mM CaCl2, 10 mM glucose, and 24 mM Hepes (pH 7.4). After equilibration for 20 min, maximal constriction was induced by methacholine (MCh, 10 μM, A2251, Sigma-Aldrich, Germany). […] Force amplitudes were always analyzed at the strongest contraction of tracheal rings. […] Statistical significance was determined by an unpaired Student’s t-test, *P < 0.05.

The test system of assay [2] is C3a-induced response. The assay can be described thus: Surface expression of CD107a and CD63 (flow cytometry), LAD2 cells activated with C3a. It is filed as cell-based, human. The following applies: 30 nM; C3a 3 nM. The protocol: The granule-associated proteins CD107a and CD63 externalize in the process of degranulation. Their quantification by flow cytometry is a reliable marker of mast cell activation, which is often used for the diagnosis of allergies and anaphylaxis in mast cell activation tests.[49],[50] Thus, the expression of CD107a and CD63 on the cell surface was determined to confirm the effects of PSB-172656 on SP-induced MRGPRX2-mediated degranulation. […] In addition to MRPGRX2, LAD2 cells also express a GPCR that is specifically activated by the complement component C3a.[51] Both receptors can activate Gαi/o proteins to promote MC activation.[48],[52]
MC degranulation was also measured by determining the cell surface expression of CD107a (Lysosomal-Associated Membrane Protein-1, LAMP-1) and CD63 (LAMP-3) after agonist stimulation.[48] LAD2 cells were preincubated with PSB-172656 or vehicle control for 5 min at 37 °C, then activated with SP (0.3 μM) and or C3a (3 nM) for 5 min at 37 °C. After 5 min of incubation, cells were fixed with 500 µL of 4% fixation buffer (Biolegend, Catalog 420801) for 15 min at room temperature. […] Cell surface expression of CD107a and CD63 was measured from the zombie-yellow negative population by a BD LSR II flow cytometer (San Jose, CA, USA) and analyzed by FlowJo software version 10.7.2 (Tree Star Inc., Ashland, OR, USA).[48],[50]
In general terms: Flow cytometry measures light scatter and fluorescence of single cells or particles in a stream.

Assay [3] deals with T1, MRGPRX2 (Homo sapiens, UniProt Q96LB1).
T1 sequence (Q96LB1 1-330): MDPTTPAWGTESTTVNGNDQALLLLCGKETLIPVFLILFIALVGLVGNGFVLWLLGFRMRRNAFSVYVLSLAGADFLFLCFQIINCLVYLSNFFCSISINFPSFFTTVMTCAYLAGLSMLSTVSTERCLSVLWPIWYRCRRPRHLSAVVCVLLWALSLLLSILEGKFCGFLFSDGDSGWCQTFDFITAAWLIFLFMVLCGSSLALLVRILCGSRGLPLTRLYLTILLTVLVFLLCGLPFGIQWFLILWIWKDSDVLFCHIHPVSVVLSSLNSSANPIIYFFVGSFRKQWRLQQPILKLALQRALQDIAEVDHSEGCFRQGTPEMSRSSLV
The assay is described as follows: Ca2+ mobilization in LAD2 cells. Format: cell-based. The settings on record: stimulation with clomipramine (16.0 µM), paroxetine (18.1 µM), desipramine (34.4 µM); listed as PSB-172656. The text has this:
PSB-172656 inhibited MRGPRX2-mediated Ca^2+ mobilization in LAD2 cells (see Supplementary Fig. S4).
Blocking of MRGPRX2 by the selective antagonist PSB-172656. […] Arrows indicate addition of stimulus; graphs represent means ± SEM of three independent experiments.
A general note: Calcium assays in cells follow changes in intracellular calcium, usually with a dye or a luminescent sensor.

Assay [4] deals with T1, MRGPRX2. The assay can be described thus: TRUPATH Gαq dissociation assay, LN229 cells expressing MRGPRX2. It is filed as cell-based. Further details: expressed in transfected cells; host or cells: LN229 human glioblastoma cells; plasmid pLXSN-MRGPRX2 (Addgene #213960). The following applies: 100 nM, preincubation. How it is done:
Fig. 3 Biological characterization of PSB-172656. a Selectivity of PSB-172656 (100 nM) for MRGPRX2 over MRGPRX1, MRGPRX3, and MRGPRX4 measured in β-arrestin assays utilizing β-arrestin-CHO cells with recombinant expression of the respective receptor. MRGPRX1 was activated by BAM-22P (8.5 µM),[19] MRGPRX2 was activated by CST-14 (1 µM), MRGPRX3 was activated by PSB-20294 (10 µM), MRGPRX4 was activated by PSB-18061 (2.6 µM).[44] Data represent mean values ± SEM of 3-4 biological replicates, performed in duplicates. […] Data are means ± SEM of 3 biological replicates, in duplicates. Statistical significance was determined by one-way ANOVA (Tukey’s multiple comparison) test (ns P > 0.05). […] Data are means ± SEM of 3 biological replicates, performed in duplicates. e Shift assay to determine inhibition type of PSB-172656 versus CST-14. […] Extrapolated data were not used for analysis but only shown for a comprehensive view. f Schild plot for the effect of PSB-172656 on the concentration-response curves for CST-14. […]
To further investigate PSB-172656 signaling, direct activation of the relevant G protein subunits, Gαq and Gαi1,[32] was studied. This was assessed using G protein dissociation assays and LN229 cells stably overexpressing MRGPRX2 while transiently expressing the investigated G protein (Fig. 3c, d).[47]

Take `CCc1c(C(C)C)[nH]c2nc3cc(F)c(F)cc3n2c1=O` [Compound 24, 3-ethyl-7,8-difluoro-2-isopropylbenzo[4,5]imidazo [1,2-a] pyrimidin-4(1H)-one]: the results for the “effect on C48/80-induced tracheal contractions” value in assay [1] (listed as PSB-172565) and in assay [1] (listed as PSB-172656) were “potently blocks tracheal contractions” and “effectively blocked the contractions”, respectively. The “effect on C3a-induced expression of CD107a and CD63” value in assay [2] is “did not affect”. The “effect on MRGPRX2-mediated Ca2+ mobilization in LAD2 cells” value in assay [3] is reported as “decreased Ca^2+ mobilization; also recorded: inhibited”. Further, the “inhibition of CST-14-induced Gαq dissociation” value in assay [4] is “completely inhibited”.
